# How the values were obtained:
# human PPARα [1] = molecular target: T1, human PPARα (Homo sapiens, UniProt Q07869); experiment: GAL4-PPAR chimera receptor transactivation assay in CV-1 cells (Example 3); type: cell-based; conditions: GAL4 DBD-hPPARα LBD chimera, read-out: Transactivation activity GAL 4 DBD-hPPAR LBD (EC50-Um) alpha
# T1 construct: human PPARα (amino acids 167-468); expressed in transfected cells; host or cells: CV-1
# T1 sequence (Q07869 167-468): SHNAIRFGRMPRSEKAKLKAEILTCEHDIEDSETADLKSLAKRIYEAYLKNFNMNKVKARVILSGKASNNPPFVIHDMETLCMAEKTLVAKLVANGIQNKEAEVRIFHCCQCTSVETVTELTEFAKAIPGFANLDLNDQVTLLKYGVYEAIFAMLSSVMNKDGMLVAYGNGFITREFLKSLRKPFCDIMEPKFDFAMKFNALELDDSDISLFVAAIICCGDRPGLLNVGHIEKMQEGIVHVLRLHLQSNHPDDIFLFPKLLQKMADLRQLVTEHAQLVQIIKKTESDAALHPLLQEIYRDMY
# Method: (§1) MH100×4-tk-luc (2) was used as the reporter plasmid.
# (§2) The luciferase and βGAL activity were measured according to the methods of Umesono, K. et al. (4) with slight modifications. A substrate reagent kit (Picagene, Toyo Ink) was used for the luciferase assay. Assays were performed in duplicate and triplicate for GAL4-chimeras and full-length receptors, respectively. Experiments were repeated at least four times.
# human PPARδ [2] = molecular target: T2, human PPARδ (Homo sapiens, UniProt Q03181); experiment: as above; type: cell-based; conditions: GAL4 DBD-hPPARδ LBD chimera, read-out: Transactivation activity GAL 4 DBD-hPPAR LBD (EC50-Um) delta
# T2 construct: PPARδ (amino acids 139-441); expressed in transfected cells; host or cells: CV-1
# T2 sequence (Q03181 139-441): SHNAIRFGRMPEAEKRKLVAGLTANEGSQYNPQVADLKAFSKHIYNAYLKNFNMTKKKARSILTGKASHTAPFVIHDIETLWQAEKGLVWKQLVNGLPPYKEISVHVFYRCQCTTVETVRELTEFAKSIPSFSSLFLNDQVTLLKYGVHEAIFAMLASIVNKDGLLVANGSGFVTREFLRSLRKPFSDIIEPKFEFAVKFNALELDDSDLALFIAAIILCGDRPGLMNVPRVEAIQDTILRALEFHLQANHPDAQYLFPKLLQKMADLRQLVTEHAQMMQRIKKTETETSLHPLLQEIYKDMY
# Method: as §1, §2
# human PPARγ1 = molecular target: T3, human PPARγ1 (Homo sapiens, UniProt P37231); experiment: as above; type: cell-based; conditions: GAL4 DBD-hPPARγ LBD chimera, read-out: Transactivation activity GAL 4 DBD-hPPAR LBD (EC50-Um) gamma
# T3 construct: PPARγ1 (amino acids 176-477); expressed in transfected cells; host or cells: CV-1
# T3 sequence (P37231 176-477 isoform P37231-2): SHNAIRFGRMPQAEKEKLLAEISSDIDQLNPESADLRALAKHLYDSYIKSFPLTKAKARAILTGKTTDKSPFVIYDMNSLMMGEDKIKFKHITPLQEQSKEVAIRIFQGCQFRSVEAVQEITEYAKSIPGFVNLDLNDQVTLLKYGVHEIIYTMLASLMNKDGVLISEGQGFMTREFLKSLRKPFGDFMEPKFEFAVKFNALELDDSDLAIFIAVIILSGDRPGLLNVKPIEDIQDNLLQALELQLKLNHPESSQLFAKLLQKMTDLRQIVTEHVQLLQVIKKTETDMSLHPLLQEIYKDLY
# Method: as §1, §2
# human PPARδ [3] = molecular target: T4, human PPARδ (Homo sapiens, UniProt Q03181); experiment: Full-length receptor transactivation assay (PPREx3-tk-luc, hRXRα) in CV-1 cells; type: cell-based; conditions: full-length hPPARδ + RXRalpha, read-out: Transactivation activity FULL-hPPAR + mRXRalpha (EC50-Um) delta
# T4 construct: expressed in transfected cells; host or cells: CV-1
# T4 sequence (Q03181 1-441): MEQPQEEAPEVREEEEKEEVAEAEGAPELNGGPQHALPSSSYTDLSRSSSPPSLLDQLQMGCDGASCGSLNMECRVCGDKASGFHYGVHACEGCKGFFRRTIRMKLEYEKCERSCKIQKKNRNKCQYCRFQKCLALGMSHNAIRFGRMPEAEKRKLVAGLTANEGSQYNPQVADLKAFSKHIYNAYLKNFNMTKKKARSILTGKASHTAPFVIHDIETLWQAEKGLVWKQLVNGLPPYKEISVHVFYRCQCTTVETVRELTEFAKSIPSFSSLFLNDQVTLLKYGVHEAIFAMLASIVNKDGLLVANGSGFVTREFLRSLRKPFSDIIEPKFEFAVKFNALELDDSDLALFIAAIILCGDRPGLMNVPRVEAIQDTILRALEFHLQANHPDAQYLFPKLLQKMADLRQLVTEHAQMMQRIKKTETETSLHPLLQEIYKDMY
# T4 sequence (P19793 1-462 partner): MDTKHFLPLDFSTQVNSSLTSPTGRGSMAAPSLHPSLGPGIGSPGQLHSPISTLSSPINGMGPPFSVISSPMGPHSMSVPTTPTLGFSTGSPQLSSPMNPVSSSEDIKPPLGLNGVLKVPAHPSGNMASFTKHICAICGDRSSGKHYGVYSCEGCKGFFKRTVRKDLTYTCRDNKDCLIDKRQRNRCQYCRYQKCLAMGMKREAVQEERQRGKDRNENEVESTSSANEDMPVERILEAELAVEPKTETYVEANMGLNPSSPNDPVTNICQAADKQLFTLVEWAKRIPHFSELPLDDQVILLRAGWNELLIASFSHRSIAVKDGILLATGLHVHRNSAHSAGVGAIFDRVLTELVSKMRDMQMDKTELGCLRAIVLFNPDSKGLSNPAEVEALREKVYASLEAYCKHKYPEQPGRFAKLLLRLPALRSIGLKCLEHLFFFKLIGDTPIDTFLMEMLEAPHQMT
# Method: (§3) Receptor expression plasmids: Full-length coding sequences for human PPARα, PPARγ and PPARδ were inserted into the mammalian expression vector pcDNA3.1+ or pCMX. The full-length coding sequence for human RXRα was inserted into pcDNA3.1+.
# (§4) Reporter plasmid: PPREx3-tk-luc (3) was used as the reporter plasmid. It contains three copies of rat Acyl-CoA oxidase peroxisome proliferator response element (PPRE) sequence (AGGACA-A-AGGTCA).
# as §2
# human PPARα [4] = molecular target: T5, human PPARα (Homo sapiens, UniProt Q07869); experiment: as above; type: cell-based; conditions: full-length hPPARα + RXRalpha, read-out: Transactivation activity FULL-hPPAR + mRXRalpha (EC50-Um) alpha
# T5 construct: expressed in transfected cells; host or cells: CV-1
# T5 sequence (Q07869 1-468): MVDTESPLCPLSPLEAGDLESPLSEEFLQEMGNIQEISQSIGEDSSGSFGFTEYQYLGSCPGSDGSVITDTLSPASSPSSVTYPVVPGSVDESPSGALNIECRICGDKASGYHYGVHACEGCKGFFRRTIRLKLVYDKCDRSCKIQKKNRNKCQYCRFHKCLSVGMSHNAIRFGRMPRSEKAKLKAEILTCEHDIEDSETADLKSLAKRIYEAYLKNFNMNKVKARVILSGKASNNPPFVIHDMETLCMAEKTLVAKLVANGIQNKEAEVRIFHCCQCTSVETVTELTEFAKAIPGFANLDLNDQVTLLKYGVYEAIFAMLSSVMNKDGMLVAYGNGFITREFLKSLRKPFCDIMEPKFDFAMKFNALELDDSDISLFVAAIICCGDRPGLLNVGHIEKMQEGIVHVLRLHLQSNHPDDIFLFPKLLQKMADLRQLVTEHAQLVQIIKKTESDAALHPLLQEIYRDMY
# T5 sequence (P19793 1-462 partner): T4 sequence (P19793 1-462 partner)
# Method: as §3, §4, §2
# human PPARγ = molecular target: T6, human PPARγ (Homo sapiens, UniProt P37231); experiment: as above; type: cell-based; conditions: full-length hPPARγ + RXRalpha, read-out: Transactivation activity FULL-hPPAR + mRXRalpha (EC50-Um) gamma
# T6 construct: expressed in transfected cells; host or cells: CV-1
# T6 sequence (P37231 1-505): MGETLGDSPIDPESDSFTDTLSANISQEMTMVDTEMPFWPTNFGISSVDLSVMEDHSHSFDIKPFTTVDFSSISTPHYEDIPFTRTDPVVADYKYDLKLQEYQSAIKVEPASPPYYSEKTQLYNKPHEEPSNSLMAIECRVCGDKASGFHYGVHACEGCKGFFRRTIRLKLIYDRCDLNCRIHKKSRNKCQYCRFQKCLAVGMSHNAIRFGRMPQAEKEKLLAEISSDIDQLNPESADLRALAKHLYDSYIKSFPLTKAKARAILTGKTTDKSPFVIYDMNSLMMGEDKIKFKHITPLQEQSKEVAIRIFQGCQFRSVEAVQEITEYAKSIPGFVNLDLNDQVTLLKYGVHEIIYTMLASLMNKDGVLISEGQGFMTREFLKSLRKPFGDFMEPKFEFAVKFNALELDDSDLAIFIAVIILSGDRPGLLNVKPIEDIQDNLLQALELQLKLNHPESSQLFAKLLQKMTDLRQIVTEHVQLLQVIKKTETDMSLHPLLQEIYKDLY
# T6 sequence (P19793 1-462 partner): T4 sequence (P19793 1-462 partner)
# Method: as §3, §4, §2
# [5] = toxicological dosages for 10 days, cited from earlier work; for Peroxisome proliferation in muscle and liver: WT mice
EC50 (human PPARα [1]) [µM],EC50 (human PPARδ [2]) [µM],EC50 (human PPARγ1) [µM],EC50 (human PPARδ [3]) [µM],EC50 (human PPARα [4]) [µM],EC50 (human PPARγ) [µM],SMILES,Peroxisome proliferation in muscle and liver [5],Incidence and severity of skeletal myopathy ([5]; WT vs PPAR-α KO mice)
> 10,0.032,> 10,0.058,3.8,9.8,Cc1cc(C(=O)CCc2nc(-c3ccc(Cl)cc3O)oc2C(C)C)ccc1OCC(=O)O,–,–
> 10,0.045,> 10,0.019,> 10,> 10,Cc1cc(C(=O)/C=C/c2sc(-c3ccc(C(F)(F)F)cc3)nc2C(C)C)ccc1OCC(=O)O,–,–
3.3,0.018,6.7,–,–,–,Cc1cc(C(=O)CCc2sc(-c3ccc(C(F)(F)F)cc3)nc2C(C)C)ccc1SCC(=O)O,–,–
> 10,> 1,> 10,> 0.3,> 8,> 8,Cc1cc(C(O)CCc2sc(-c3ccc(C(F)(F)F)cc3)nc2C(C)C)ccc1OCC(=O)O (stereo not drawn),–,–
> 10,> 0.7,> 10,–,–,–,Cc1cc([C@H](O)CCc2sc(-c3ccc(C(F)(F)F)cc3)nc2C(C)C)ccc1OCC(=O)O,–,–
–,–,–,–,–,–,Cc1cc(SCc2sc(-c3ccc(C(F)(F)F)c(F)c3)nc2C)ccc1OCC(=O)O [GW0742],significant peroxisome proliferation,greater in WT mice
–,–,–,–,–,–,"Cc1cccc(Nc2cc(Cl)nc(SCC(=O)O)n2)c1C [WY-14,643]",significant peroxisome proliferation,–
> 10,0.018,> 8,0.0022,3.2,5.8,Cc1cc(C(=O)CCc2sc(-c3ccc(C(F)(F)F)cc3)nc2C(C)C)ccc1OCC(=O)O [drawing 63],–,–

SMILES,EC50 (human PPARα [1]) [µM],EC50 (human PPARδ [2]) [µM],EC50 (human PPARγ1) [µM],EC50 (human PPARδ [3]) [µM],EC50 (human PPARα [4]) [µM],EC50 (human PPARγ) [µM],Peroxisome proliferation in muscle and liver [5],Incidence and severity of skeletal myopathy ([5]; WT vs PPAR-α KO mice)
Cc1cc2c(CCc3nc(-c4ccc(Cl)cc4Cl)oc3C(C)C)noc2cc1OCC(=O)O,> 10,0.025,> 10,0.007,7.8,> 10,–,–

# — US20110092517A1, “Use of PPAR Delta Ligands for the Treatment or Prevention of Inflammation or Energy Metabolism/Production Related Diseases” (Cerenis Therapeutics S.A. & Nippon Chemiphar Co., Ltd., priority 2009, published 2011)
